Legend:
[1] = Magri et al. (1988); cited from earlier work
HSA = HSA (Homo sapiens, UniProt P02768); assay: Effect of antioxidants on HSA dimerization at acidic pH (SDS-PAGE, reducing and non-reducing); conditions: acidification of commercial HSA to pH 3.0-3.3; compared with ascorbic acid, L-cysteine, sodium thiosulfate
Protocol: This experiment evaluated a number of conditions to maintain HSA in the formulation, primarily in the monomeric form.
Evaluation of different antioxidants with undefatted and defatted acidic HSA preparations. • The following reducing reagents were tested: ascorbic acid, L-cysteine, dithioerythritol (DTE) and dithiothreitol (DTT), sodium metabisulfite, sodium thiosulfate, and thioacetic acid. • Different preparations of HSA (10%), including HSA-A, HSA-B, and HSA-D, were treated with antioxidant at different concentrations, ranging from 2 to 40 mM. • The HSA solutions were incubated at 2-8° C. for up to a month, and prevention of dimerization was analyzed by SDS-PAGE under both reducing and non-reducing conditions.
Analysis of the effect of antioxidant on prevention of HSA dimerization at low pH. • 5.
3.3 Add 80 μL of antioxidant solution to the 1.92 mL of HSA-A (20%) in 2×9′ (18) the 15-mL conical tubes as follows:
• Sample 9 will be the control sample for either HSA-B or HSA-D, untreated. • 3.4 Incubate the samples at 2-8° C. for at least 4 h. • 3.5 In the meantime, • 3.5.1 Prepare material for acidification and defatting of HSA. • 3.5.2 Prepare another 2×9 (18) set of 15-mL conical centrifuge tubes (sterile). […]

collagenase = conditions: 10^−7 M paclitaxel, chondrocytes stimulated by tumor necrosis factor and interleukin-1; cited from earlier work
[2] = Solubility of paclitaxel in aqueous ethanol saline solution (visual turbidity); format: physicochemical
Protocol: Reagents Preparation • 1. […] A 20-ml physiological saline stock solution was also prepared in a small bottle (or flask) and designated the 1× saline stock solution.
4. The tubes were incubated at room temperature and observed at 0 h, 1 h and 3 h for precipitate formation. The results were recorded as + or − turbidity formation.

[3] = target: T1, human serum albumin (HSA) (Homo sapiens, UniProt P02768); assay: Paclitaxel binding to HSA: ultrafiltration (10 kDa), free and total Ptx by ELISA and/or reverse-phase HPLC; design: purchased Desert Biologicals, Phoenix, Ariz; conditions: pH 7.1
T1 sequence (P02768 25-609): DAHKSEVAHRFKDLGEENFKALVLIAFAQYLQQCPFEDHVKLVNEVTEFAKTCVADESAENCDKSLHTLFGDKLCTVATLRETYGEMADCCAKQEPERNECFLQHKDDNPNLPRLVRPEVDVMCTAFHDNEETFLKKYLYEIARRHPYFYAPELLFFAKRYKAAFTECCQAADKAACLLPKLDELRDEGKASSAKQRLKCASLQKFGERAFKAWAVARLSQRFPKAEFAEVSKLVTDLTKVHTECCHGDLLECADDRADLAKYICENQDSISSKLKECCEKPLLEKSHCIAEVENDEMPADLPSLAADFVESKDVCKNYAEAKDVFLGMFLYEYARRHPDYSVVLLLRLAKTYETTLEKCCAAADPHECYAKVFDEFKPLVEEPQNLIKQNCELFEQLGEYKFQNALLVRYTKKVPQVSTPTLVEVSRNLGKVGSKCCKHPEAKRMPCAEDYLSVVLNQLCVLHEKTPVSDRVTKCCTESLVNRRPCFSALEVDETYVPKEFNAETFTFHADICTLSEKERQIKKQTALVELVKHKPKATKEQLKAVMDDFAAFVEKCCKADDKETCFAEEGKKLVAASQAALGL
Protocol: • 1. […] Procedure • 1. […] Saline in water could also be added to the test tubes so that all the test tubes have substantially identical sodium chloride concentrations. • 3. […] The test tubes were covered with a piece of parafilm or in stoppered serum bottles and then incubated at room temperature, with occasional shaking (2 to 3 times). • 6. At 0 hr, 3 hr, and/or 18/24 hr of incubation, the samples were observed qualitatively for precipitate formation. • 7. At the end of the 18-24 hr incubation period, the reaction mixtures were analyzed for turbidity at 600 nm using a Shimadzu 160U UV/visible spectrophotometer (NBI Track #F1174). • 8. […] Analytical methods.
Procedure • 1. […] The test tubes were covered with a parafilm and then incubated at room temperature, with occasional shaking. Alternatively, the mixtures were prepared in stoppered serum vials. • 6.
This unbound fraction can be quantitated by reverse phase HPLC, and/or ELISA.

synoviocytes = conditions: in vitro, cited from earlier work
[4] = target: T1, human serum albumin (HSA); assay: Recovery of soluble Ptx and binding to HSA by liquid scintillation counting (radioactive Ptx; R, S, F fractions)
[5] = mice, co-administered P-glycoprotein blocker; cited from earlier work

Chain of HSA (P02768 25-609): as above

SMILES: CC(=O)O[C@H]1C(=O)[C@@]2(C)[C@H]([C@H](OC(=O)c3ccccc3)[C@]3(O)C[C@H](OC(=O)[C@H](O[Si](C)(C)C(C)(C)C)[C@@H](NC(=O)c4ccccc4)c4ccccc4)C(C)=C1C3(C)C)[C@]1(OC(C)=O)CO[C@@H]1C[C@@H]2O [2′-(t-butyldimethylsilyl)taxol]
- in vivo activity compared with paclitaxel [1]: essentially inactive

SMILES: CC(=O)O[C@H]1C(=O)[C@@]2(C)[C@H]([C@H](OC(=O)c3ccccc3)[C@]3(O)C[C@H](OC(=O)[C@H](OC(=O)CCC(=O)O)[C@@H](NC(=O)c4ccccc4)c4ccccc4)C(C)=C1C3(C)C)[C@]1(OC(C)=O)CO[C@@H]1C[C@@H]2O [2′-succinyltaxol]
- in vivo activity compared with paclitaxel [1]: decreased in vivo activity

SMILES: O[C@H](CS)[C@@H](O)CS [DTE, dithioerythritol]
- effectiveness in minimizing the HSA dimerization reaction (HSA): most effective

SMILES: CC(=O)O[C@H]1C(=O)[C@@]2(C)[C@H]([C@H](OC(=O)c3ccccc3)[C@]3(O)C[C@H](OC(=O)[C@H](O)[C@@H](NC(=O)c4ccccc4)c4ccccc4)C(C)=C1C3(C)C)[C@]1(OC(C)=O)CO[C@@H]1C[C@@H]2O [Ptx, paclitaxel]
- reduction of collagenase expression (collagenase): over 50%
- time until paclitaxel solutions turned cloudy ([2]; 500 μg/ml paclitaxel, 20% ethanol or less, room temperature): ≤ 5 min
- paclitaxel concentration at which solutions remained clear for at least 3 hours ([2]; aqueous ethanol saline solutions, room temperature): ≤ 50 µg/mL
- paclitaxel concentration at which clear solutions were obtained ([2]; aqueous ethanol solutions (5% to 25%), after a 1-h incubation at room temperature): less than 100 μg/ml
- solubility of paclitaxel at 500 μg/ml ([2]; saline solution containing up to 25% ethanol, after 1 hr): not soluble
- recovery at 50 μg/mL ([3]; defatted human serum albumin (HSA) solution): 73%
- recovery at 50 μg/mL ([3]; non-defatted human serum albumin (HSA) solution): 89%
- concentration cytotoxic to the synoviocytes (synoviocytes): 10^−6 to 10^−5 M
- concentration inhibiting proliferation of synoviocytes and inducing apoptosis (synoviocytes; concentrations as low as): 10^−7 M
- chemical stability of Ptx in alkaline pH formulations [4]: poor

SMILES: C/C=C/C[C@@H](C)C(=O)[C@H]1C(=O)N[C@@H](C(C)C)C(=O)N(C)CC(=O)N(C)[C@@H](CC(C)C)C(=O)N[C@@H](C(C)C)C(=O)N(C)[C@@H](CC(C)C)C(=O)N[C@@H](C)C(=O)N[C@H](C)C(=O)N(C)[C@@H](CC(C)C)C(=O)N(C)[C@@H](CC(C)C)C(=O)N(C)[C@@H](C(C)C)C(=O)N1C [SDZ PSC 833]
- increase in oral bioavailability of paclitaxel [5]: 10 fold
